Experiment in all cases: DTP human tumour cell line panel, 48 h
Experiment [1] relates to IGROV1 ovarian.
The subject of experiment [2] is HL-60(TB) leukemia.
Experiment [3] deals with OVCAR-3 ovarian.
The test system of experiment [4] is HCC-2998 colon.
For experiment [5], the system named is SK-MEL-5 melanoma.
For experiment [6], the system named is A498 renal.
The test system of experiment [7] is UACC-62 melanoma.
Experiment [8] concerns OVCAR-8 ovarian.
Experiment [9] has as its system T-47D breast.
The subject of experiment [10] is A549 NSCLC.
The subject of experiment [11] is MDA-MB-231 breast.
Experiment [12] concerns DU-145 prostate.
In experiment [13] the test system is SNB-75 CNS.
The subject of experiment [14] is NCI-H23 lung.
In experiment [15] the test system is U251 CNS.
In experiment [16] the test system is M14 melanoma.
Experiment [17] deals with NCI-H522 lung.
The subject of experiment [18] is PC-3 prostate.
Experiment [19] concerns EKVX NSCLC.
The subject of experiment [20] is HS 578T breast.

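These data come from cells grown in 96-well plates and exposed to compound for 48 hours at five concentrations. TGI: total growth inhibition.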

On to `O=C(O)CCC1C(=O)C2CCN1CC2` (stereo not given), for which the TGI in [1], in [2], in experiment [3], in experiment [4], in experiment [5] and in [6] was more than 100 µM throughout. Also, the concentration for total growth inhibition (TGI) in experiment [7], in [8], in experiment [9], in [10], in experiment [11] and in experiment [12] was more than 100 µM in each case. Moreover, the total growth inhibition concentration (TGI) in experiment [13], in experiment [14], in experiment [15], in experiment [16], in experiment [17] and in experiment [18] was more than 100 µM each time. For the same compound, the TGI in [19] and in [20] was more than 100 µM each time.

Consider `C#CCC(O)c1ccc(OC)c(OCc2ccccc2)c1` (stereo not given), for which the TGI in [1], in [2], in [3], in [4], in experiment [5] and in experiment [6] was more than 100 µM in each case. Besides, the TGI in [7], in experiment [8], in [9], in [10], in experiment [11] and in experiment [12] was more than 100 µM each time. The TGI was 78.4 µM in experiment [13]; more than 100 µM in experiment [14]; more than 100 µM in [15]; more than 100 µM in experiment [16]; more than 100 µM in [17]; more than 100 µM in experiment [18]. In addition, the TGI in [19] and in experiment [20] was more than 100 µM each time.

As for `O=C(NCCc1ccccn1)c1ccc2cc(C(=O)N3CC(CCl)c4ccc([N+](=O)[O-])cc43)[nH]c2c1` (stereo not given), the TGI is more than 100 µM in [1]; more than 100 µM in experiment [2]; 28.2 µM in experiment [3]; more than 100 µM in experiment [4]; more than 100 µM in experiment [5]; more than 100 µM in experiment [6]. Moreover, the TGI in [7] is more than 67.4 µM; in [8], more than 86.9 µM; in experiment [9], more than 100 µM; in [10], more than 100 µM; in experiment [11] it was more than 66.8 µM; in experiment [12], more than 100 µM. Further, the TGI in experiment [13] is more than 100 µM; in [14] it was more than 100 µM; in experiment [15], more than 100 µM; in experiment [16], more than 100 µM; in [17] it was more than 86.7 µM; in experiment [18] it was more than 100 µM. Besides, the TGI in [19] and in [20] was more than 100 µM in each case.

For `CC(=O)n1nc(-c2[nH]c(C)c(-c3nn(C(C)=O)c(=S)o3)c2C)oc1=S`, the TGI in experiment [1], in experiment [2], in [3], in [4], in experiment [5] and in [6] was more than 100 µM each time. In addition, the TGI in experiment [7], in [8], in [9], in experiment [10], in [11] and in experiment [12] was more than 100 µM in each case. The TGI in experiment [13], in experiment [14], in experiment [15], in experiment [16], in experiment [17] and in [18] was more than 100 µM throughout. Also, the TGI in experiment [19] and in [20] was more than 100 µM throughout.

As for `C[C@H]1[C@H]2[C@H](C[C@@]3(C)C4=CC[C@H]5C(C)(C)[C@@H](OC6OCC(O)C(O)C6O)CC[C@@]56C[C@@]46CC[C@]23C)O[C@@]2(O)[C@@H]1OC(C)(C)[C@H]2O` (stereo not given in full), the TGI is 1.85 µM in experiment [1]; 28.8 µM in experiment [2]; 9.61 µM in experiment [3]; 1.45 µM in experiment [4]; 4.71 µM in experiment [5]; 4.95 µM in experiment [6]. Moreover, the TGI turned out to be 5.32 µM in experiment [7]; 1.81 µM in experiment [8]; 1.81 µM in experiment [9]; 5.5 µM in [10]; 6.9 µM in experiment [11]; 1.91 µM in experiment [12]. Moreover, the TGI in [13] was determined as 6 µM; in experiment [14], 3.31 µM; in experiment [15], 5.5 µM; in [16], 10.7 µM; in [17] it was 2.42 µM; in [18] it was 2.32 µM. Besides, the TGI in experiment [19] came to 2.61 µM; in experiment [20] it was 3.7 µM.

Regarding `C=C(CN(C)C)C(=O)c1ccccc1`, the total growth inhibition concentration (TGI) is 36.3 µM in experiment [1]; more than 20.8 µM in [2]; 9.9 µM in experiment [3]; 32.7 µM in [4]; 28.8 µM in experiment [5]; 41.7 µM in experiment [6]. Further, the TGI was 30.1 µM in [7]; 44.6 µM in experiment [8]; 4.93 µM in experiment [9]; 53 µM in experiment [10]; 31.4 µM in experiment [11]; 30.2 µM in [12]. Further, the TGI in experiment [13] was determined as 39.7 µM; in experiment [14] it was 45 µM; in experiment [15], 35.1 µM; in experiment [16], 7.54 µM; in experiment [17] it was 1.69 µM; in experiment [18] it was 30.6 µM. Besides, the TGI was 46.3 µM in experiment [19] and more than 100 µM in [20].

Usually TGI stands for the concentration giving total growth inhibition.

(Values after PubChem BioAssay (NCI).)
